Measured values reported in patent US20230023092A1, “TREATMENT OF DEPRESSION AND OTHER VARIOUS DISORDERS WITH PSILOCYBIN” (COMPASS […], priority 2019, published 2023).

How the values were obtained:
[1] = tested on: healthy subjects; assay: Five-Dimensional Altered States of Consciousness (5D-ASC) questionnaire; type: in vivo, human; conditions: Psilocybin 25 mg-Placebo, Post-Treatment Day 0
Description: In some embodiments, the Five Dimension Altered States of Consciousness questionnaire (5D-ASC) is utilized to evaluate the safety and/or efficacy of psilocybin. […] The 5 dimensions include oceanic boundlessness, anxious ego dissolution, visionary restructuralization, auditory alterations and reduction of vigilance.

[2] = tested on: healthy subjects; assay: NEO-Five Factor Inventory (NEO-FFI); type: in vivo, human
Protocol: In some embodiments, the NEO-Five Factor Inventory (NEO-FFI) test is used to evaluate the safety and/or efficacy of psilocybin. The NEO-FFI evaluates 5 broad domains of personality—Neuroticism, Extroversion, Openness, Agreeableness and Conscientiousness.
The Neuroticism Extraversion Openness-Five Factor Inventory (NEO-FFI) and Symptom Checklist-90 Item (SCL-90) were administered. Details of the MMRM applied to the change from baseline scores for the NEO-FFI and SCL-90 are provided below in Table 2Q.

[3] = Day 7, psilocybin 10 mg - placebo
[4] = Day 7, psilocybin 25 mg - 10 mg
[5] = Day 7, psilocybin 25 mg - placebo
[6] = Day 84, psilocybin 10 mg - placebo
[7] = Day 84, psilocybin 25 mg - 10 mg
[8] = Day 84, psilocybin 25 mg - placebo

With CN(C)CCc1c[nH]c2cccc(OP(=O)(O)O)c12 [Psilocybin, psilocybin] the “5D-ASC Audio-visual synaesthesia, Mean difference” value [1] was 67.3, the “5D-ASC Auditory alteration, Mean difference” value [1] was 29.1 and the “5D-ASC Blissful state, Mean difference” value [1] was 53.6. For the same compound, the “5D-ASC Changed meaning of percepts, Mean difference” value [1] was 43.9, the “5D-ASC Complex imagery, Mean difference” value [1] was 60.5 and the “5D-ASC Disembodiment, Mean difference” value [1] was 46.9. For the same compound, the “5D-ASC Dread of ego dissolution, Mean difference” value [1] was 30.6, the “5D-ASC Elementary imagery, Mean difference” value [1] was 64.0 and the “5D-ASC Experience of unity, Mean difference” value [1] was 53.6. For the same compound, the “5D-ASC Impaired control and cognition, Mean difference” value [1] was 30.9, the “5D-ASC Insightfulness, Mean difference” value [1] was 58.2 and the “5D-ASC Oceanic boundlessness, Mean difference” value [1] was 54.9. The “5D-ASC Spiritual experience, Mean difference” value [1] was 53.7, the “5D-ASC Vigilance reduction, Mean difference” value [1] was 30.4 and the “5D-ASC Visual restructuralisation, Mean difference” value [1] was 58.7. For the same compound, the “NEO agreeableness change from baseline, LS mean” value ([2]; Day 7, psilocybin 10 mg) was −0.2, the “NEO conscientiousness change from baseline, LS mean” value ([2]; Day 7, psilocybin 10 mg) was −0.1 and the “NEO extraversion change from baseline, LS mean” value ([2]; Day 7, psilocybin 10 mg) was 0.3. For the same compound, the “NEO neuroticism change from baseline, LS mean” value ([2]; Day 7, psilocybin 10 mg) was 0.2, the “NEO openness change from baseline, LS mean” value ([2]; Day 7, psilocybin 10 mg) was 0.3 and the “NEO agreeableness change from baseline, LS mean difference” value [2, 3] was −0.4. For the same compound, the “NEO conscientiousness change from baseline, LS mean difference” value [2, 3] was 0.4, the “NEO extraversion change from baseline, LS mean difference” value [2, 3] was 0.4 and the “NEO neuroticism change from baseline, LS mean difference” value [2, 3] was −0.2. The “NEO openness change from baseline, LS mean difference” value [2, 3] was 1.1, the “NEO agreeableness change from baseline, LS mean” value ([2]; Day 7, psilocybin 25 mg) was 0.1 and the “NEO conscientiousness change from baseline, LS mean” value ([2]; Day 7, psilocybin 25 mg) was 0.1. The “NEO extraversion change from baseline, LS mean” value ([2]; Day 7, psilocybin 25 mg) was 0.3, the “NEO neuroticism change from baseline, LS mean” value ([2]; Day 7, psilocybin 25 mg) was 0.2 and the “NEO openness change from baseline, LS mean” value ([2]; Day 7, psilocybin 25 mg) was 0.4. The “NEO agreeableness change from baseline, LS mean difference” value [2, 4] was 0.4, the “NEO conscientiousness change from baseline, LS mean difference” value [2, 4] was 0.3 and the “NEO extraversion change from baseline, LS mean difference” value [2, 4] was 0.1. For the same compound, the “NEO neuroticism change from baseline, LS mean difference” value [2, 4] was −0.0, the “NEO openness change from baseline, LS mean difference” value [2, 4] was 0.1 and the “NEO agreeableness change from baseline, LS mean difference” value [2, 5] was −0.1. The “NEO conscientiousness change from baseline, LS mean difference” value [2, 5] was 0.7, the “NEO extraversion change from baseline, LS mean difference” value [2, 5] was 0.5 and the “NEO neuroticism change from baseline, LS mean difference” value [2, 5] was 0.2. For the same compound, the “NEO openness change from baseline, LS mean difference” value [2, 5] was 1.2, the “NEO agreeableness change from baseline, LS mean” value ([2]; Day 84, psilocybin 10 mg) was −0.9 and the “NEO conscientiousness change from baseline, LS mean” value ([2]; Day 84, psilocybin 10 mg) was −1.3. For the same compound, the “NEO extraversion change from baseline, LS mean” value ([2]; Day 84, psilocybin 10 mg) was −0.9, the “NEO neuroticism change from baseline, LS mean” value ([2]; Day 84, psilocybin 10 mg) was 2.1 and the “NEO openness change from baseline, LS mean” value ([2]; Day 84, psilocybin 10 mg) was 0.4. The “NEO agreeableness change from baseline, LS mean difference” value [2, 6] was −0.8, the “NEO conscientiousness change from baseline, LS mean difference” value [2, 6] was 0.2 and the “NEO extraversion change from baseline, LS mean difference” value [2, 6] was −0.7. For the same compound, the “NEO neuroticism change from baseline, LS mean difference” value [2, 6] was 0.3, the “NEO openness change from baseline, LS mean difference” value [2, 6] was 1.1 and the “NEO agreeableness change from baseline, LS mean” value ([2]; Day 84, psilocybin 25 mg) was −0.9. For the same compound, the “NEO conscientiousness change from baseline, LS mean” value ([2]; Day 84, psilocybin 25 mg) was −0.1, the “NEO extraversion change from baseline, LS mean” value ([2]; Day 84, psilocybin 25 mg) was −0.7 and the “NEO neuroticism change from baseline, LS mean” value ([2]; Day 84, psilocybin 25 mg) was 0.8. The “NEO openness change from baseline, LS mean” value ([2]; Day 84, psilocybin 25 mg) was 0.3, the “NEO agreeableness change from baseline, LS mean difference” value [2, 7] was 0.1 and the “NEO conscientiousness change from baseline, LS mean difference” value [2, 7] was 1.2. The “NEO extraversion change from baseline, LS mean difference” value [2, 7] was 0.2, the “NEO neuroticism change from baseline, LS mean difference” value [2, 7] was −1.3 and the “NEO openness change from baseline, LS mean difference” value [2, 7] was −0.7. For the same compound, the “NEO agreeableness change from baseline, LS mean difference” value [2, 8] was −0.7, the “NEO conscientiousness change from baseline, LS mean difference” value [2, 8] was 1.4 and the “NEO extraversion change from baseline, LS mean difference” value [2, 8] was −0.5. For the same compound, the “NEO neuroticism change from baseline, LS mean difference” value [2, 8] was −1.0 and the “NEO openness change from baseline, LS mean difference” value [2, 8] was 0.4.
